Tested on: Cyclin-dependent kinase
Assay: Cyclin-dependent kinase inhibition, % inhibition at 10 nM (library Examples 99-270)
Type: biochemical
Details: 10 nM compound
Procedure: Cyclin-dependent kinase activity was measured by quantifying the enzyme-catalyzed, time-dependent incorporation of radioactive phosphate from [^32P]ATP or [^33P]ATP into a protein substrate. Unless noted otherwise, assays were performed in 96-well plates in a total volume of 50 μL, in the presence of 10 mM HEPES (N-[2-hydroxyethyl]piperazine-N′-[2-ethanesulfonic acid]) (pH 7.4), 10 mM MgCl2, 25 μM adenosine triphosphate (ATP), 1 mg/mL ovalbumin, 5 μg/mL leupeptin, 1 mM dithiothreitol, 10 mM beta-glycerophosphate, 0.1 mM sodium vanadate, 1 mM sodium fluoride, 2.5 mM ethylene glycol-bis(β-aminoethyl ethKer)-N,N,N′N′-tetraacetic acid (EGTA), 2% (v/v) dimethylsulfoxide, and 0.03-0.4 μCi [^32/33P]ATP per reaction. Reactions were initiated with enzyme, incubated at 30° C., and terminated after 20 minutes by the addition of ethylenediaminetetraacetic acid (EDTA) to 250 mM. The phosphorylated substrate was then captured on a nitrocellulose or phosphocellulose membrane using a 96-well filtration manifold, and unincorporated radioactivity was removed by repeated washing with 0.85% phosphoric acid. Radioactivity was quantified by exposing the dried membranes to a phosphorimager.
Results of assays performed on compounds, which include the specific examples described above are provided in Examples 99-274 above, and in Table 1 below. Unless indicated otherwise in a particular entry, the units and assays used are as indicated in the applicable column of the table.

SMILES | % Inhib @ 10 nM [%]
CCNCc1cncc(-c2ccc3[nH]nc(-c4ncc(C(=O)N(C)C5CCN(C)C5)[nH]4)c3c2)c1C (stereo not drawn) [Example 137, 2-(5-{5-[(ethylamino)methyl]-4-methylpyridin-3-yl}-1H-indazol-3-yl)-N-methyl-N-(1-methylpyrrolidin-3-yl)-1H-imidazole-5-carboxamide] | 37
CCNCc1cncc(-c2ccc3[nH]nc(-c4ncc(C(=O)NC5(CO)CCCC5)[nH]4)c3c2)c1C [Example 139, 2-(5-{5-[(ethylamino)methyl]-4-methylpyridin-3-yl}-1H-indazol-3-yl)-N-[1-(hydroxymethyl)cyclopentyl]-1H-imidazole-5-carboxamide] | 64
CCNCc1cncc(-c2ccc3[nH]nc(-c4ncc(C(=O)N5CCC(C(=O)c6ccc(F)cc6)CC5)[nH]4)c3c2)c1C [Example 142, (1-{[2-(5-{5-[(ethylamino)methyl]-4-methylpyridin-3-yl}-1H-indazol-3-yl)-1H-imidazol-5-yl]carbonyl}piperidin-4-yl)(4-fluorophenyl)methanone] | 65
CCNCc1cncc(-c2ccc3[nH]nc(-c4ncc(C(=O)N5CCN(c6ccncc6)CC5)[nH]4)c3c2)c1C [Example 144, ethyl{[4-methyl-5-(3-{5-[(4-pyridin-4-ylpiperazin-1-yl)carbonyl]-1H-imidazol-2-yl}-1H-indazol-5-yl)pyridin-3-yl]methyl}amine] | 30
CCNCc1cncc(-c2ccc3[nH]nc(-c4ncc(C(=O)N5CCN(c6cnccn6)CC5)[nH]4)c3c2)c1C [Example 145] | 58
C=CCN(CC=C)CCN1CCN(C(=O)c2cnc(-c3n[nH]c4ccc(-c5cncc(CNCC)c5C)cc34)[nH]2)CC1 [Example 146, diallyl[2-(4-{[2-(5-{5-[(ethylamino)methyl]-4.-methylpyridin-3-yl}-1H-indazol-3-yl)-1H-imidazol-5-yl]carbonyl}piperazin-1-yl)ethyl]amine] | 22
CCNCc1cncc(-c2ccc3[nH]nc(-c4ncc(C(=O)N5CCN(c6ccccc6C#N)CC5)[nH]4)c3c2)c1C [Example 147] | 69
CCNCc1cncc(-c2ccc3[nH]nc(-c4ncc(C(=O)NCc5ccc(F)c(C(F)(F)F)c5)[nH]4)c3c2)c1C [Example 148] | 60
CCNCc1cncc(-c2ccc3[nH]nc(-c4ncc(C(=O)NC)[nH]4)c3c2)c1C [Example 151, 2-(5-{5-[(ethylamino)methyl]-4-methylpyridin-3-yl}-1H-indazol-3-yl)-N-methyl-1H-imidazole-5-carboxamide] | 67
CCNCc1cncc(-c2ccc3[nH]nc(-c4ncc(C(=O)N5CCOCC5)[nH]4)c3c2)c1C [Example 152, ethyl[(4-methyl-5-{3-[5-(morpholin-4-ylcarbonyl)-1H-imidazol-2-yl]-1H-indazol-5-yl}pyridin-3-yl)methyl]amine] | 67
CCNCc1cncc(-c2ccc3[nH]nc(-c4ncc(C(=O)NCCO)[nH]4)c3c2)c1C [Example 153, 2-(5-{5-[(ethylamino)methyl]-4-methylpyridin-3-yl}-1H-indazol-3-yl)-N-(2-hydroxyethyl)-1H-imidazole-5-carboxamide] | 70
CCNCc1cncc(-c2ccc3[nH]nc(-c4ncc(C(=O)NCCC#N)[nH]4)c3c2)c1C [Example 154, N-(2-cyanoethyl)-2-(5-{5-[(ethylamino)methyl]-4-methylpyridin-3-yl}-1H-indazxol-3-yl)-1H-imidazole-5-carboxamide] | 71
CCNCc1cncc(-c2ccc3[nH]nc(-c4ncc(C(=O)NCCSCc5ccc(CN(C)C)o5)[nH]4)c3c2)c1C [Example 155, N-{2-[({5-[(dimethylamino)methyl]-2-furyl}methyl)thio]ethyl}-2-(5-{5-[(ethylamino)methyl]-4-methylpyridin-3-yl}-1H-indazol-3-yl)-1H-imidazoie-5-carboxamide] | 37
CCNCc1cncc(-c2ccc3[nH]nc(-c4ncc(C(=O)NC/C=C(\C)CCC=C(C)C)[nH]4)c3c2)c1C [Example 157] | 28
CCNCc1cncc(-c2ccc3[nH]nc(-c4ncc(C(=O)NC5Cc6ccccc6C5)[nH]4)c3c2)c1C [Example 158, N-(2,3-dihydro-1H-inden-2-yl)-2-(5-{5-[(ethylamino)methyl]-4-methylpyridin-3-yl}-1H-indazol-3-yl)-1H-imidazole-5-carboxamide] | 56
CCNCc1cncc(-c2ccc3[nH]nc(-c4ncc(C(=O)NCc5ccc(CN(C)C)cc5)[nH]4)c3c2)c1C [Example 159, N-{4[(dimethylamino)methyl]benzyl}-2-(5-{5-[(ethylamino)methyl]-4-methylpyridin-3-yl}-1H-indazol-3-yl)-1H-imidazole-5-carboxamide] | 28

The next lines start with the values.

% Inhib @ 10 nM [%] | SMILES
67 | CCNCc1cncc(-c2ccc3[nH]nc(-c4ncc(C(=O)NC5CCC5)[nH]4)c3c2)c1C [Example 135, N-cyclobutyl-2-(5-{5-[(ethylamino)methyl]-4-methylpyridin-3-yl}-1H-indazol-3-yl)-1H-imidazole-5-carboxamide]
72 | CCNCc1cncc(-c2ccc3[nH]nc(-c4ncc(C(=O)NCC(F)(F)F)[nH]4)c3c2)c1C [Example 136, 2-(5-{5-[(ethylamino)methyl]-4-methylpyridin-3-yl}-1H-indazol-3-yl)-N-(2,2,2-trifluoroethyl)-1H-imidazole-5-carboxamide]
79 | CCNCc1cncc(-c2ccc3[nH]nc(-c4ncc(C(=O)N5CCCC5)[nH]4)c3c2)c1C [Example 138, ethyl[(4-methyl-5-{3-[5-(pyrrolidin-1-ylcarbonyl)-1H-imidazol-2-yl]-1H-indazol-5-yl}pyridin-3-yl)methyl]amine]
31 | CCNCc1cncc(-c2ccc3[nH]nc(-c4ncc(C(=O)N[C@H](CO)Cc5c[nH]c6ccccc56)[nH]4)c3c2)c1C [Example 140, 2-(5-{5-[(ethylamino)methyl]-4-methylpyridin-3-yl}-1H-indazol-3-yl)-N-[(1S)-2-hydroxy-1-(1H-indol-3-ylmethyl)ethyl]-1 H-imidazole-5-carboxamide]
71 | CCNCc1cncc(-c2ccc3[nH]nc(-c4ncc(C(=O)N5CCC(O)(Cc6ccccc6)CC5)[nH]4)c3c2)c1C [Example 141, 4-benzyl-1-{[2-(5-{5-[(ethylamino)methyl]-4-methylpyridin-3-yl}-1H-indazol-3-yl)-1H-imidazol-5-yl]carbonyl}pipendin-4-ol]
78 | CCNCc1cncc(-c2ccc3[nH]nc(-c4ncc(C(=O)NC5CCCCC5)[nH]4)c3c2)c1C [Example 143, N-cyclohexyl-2-(5-{5-[(ethylamino)methyl]-4-methylpyridin-3-yl}-1H-indazol-3-yl)-1H-imidazole-5-carboxamide]
69 | CCNCc1cncc(-c2ccc3[nH]nc(-c4ncc(C(=O)N5CCC6CCCCC6C5)[nH]4)c3c2)c1C (stereo not drawn) [Example 149, ethyl[(4-methyl-5-{3-[5-(octahydroisoquinolin-2(1H)-ylcarbonyl)-1H-imidazol-2-yl]-1H-indazol-5-yl}pyridin-3-yl)methyl]amine]
25 | CCNCc1cncc(-c2ccc3[nH]nc(-c4ncc(C(=O)N(C)CCN(C)C)[nH]4)c3c2)c1C [Example 156]
